The numbers were not newly measured in patent US9289396B2, “Collagen-based implants for sustained delivery of drugs” (Euclid Systems Corporation, priority 2010, dated 2016), which cites them from elsewhere.

For one data set the following is noted: in phosphate buffer.
As for `CC(C)OC(=O)CCC/C=C\C[C@@H]1[C@@H](CC[C@@H](O)CCc2ccccc2)[C@H](O)C[C@@H]1O` [latanoprost, 13,14-dihydro-17-phenyl-18,19,20-trinor-prostaglandin F2a-1-isopropyl ester], the aqueous solubility entry is on record as “about 50 μg/mL”.

Conditions in the next data set: not given
Turning to `C[C@H]1C[C@H]2[C@@H]3CCC4=CC(=O)C=C[C@]4(C)[C@@]3(F)[C@@H](O)C[C@]2(C)[C@@]1(O)C(=O)CO` [betamethasone], the “Approx. Solubility in water” value is 0.5 µg/mL. Consider `CCNC(=O)CCC/C=C\C[C@@H]1[C@@H](/C=C/[C@@H](O)CCc2ccccc2)[C@H](O)C[C@@H]1O` [bimatoprost], for which the “Approx. Solubility in water” value is 20 µg/mL.

Turning to `CN(CCCCCCCCCCN(C)C(=O)Oc1cccc([N+](C)(C)C)c1)C(=O)Oc1cccc([N+](C)(C)C)c1` [demecarium], the “Approx. Solubility in water” value was 0.1 µg/mL.

For the compound `CNCC(O)c1ccc(OC(=O)C(C)(C)C)c(OC(=O)C(C)(C)C)c1` (stereo not shown) [dipivefrin], the “Approx. Solubility in water” value was 58 µg/mL. In the case of `CN1CCC(=C2c3ccccc3CC(=O)c3sccc32)CC1` [ketotifen], the “Approx. Solubility in water” value was 8 µg/mL. Turning to `CCOC(=O)O[C@]1(C(=O)OCCl)CC[C@H]2[C@@H]3CCC4=CC(=O)C=C[C@]4(C)[C@H]3[C@@H](O)C[C@@]21C` [loteprednol etabonate], the “Approx. Solubility in water” value was 7 µg/mL. With `NC(=O)Cc1cccc(C(=O)c2ccccc2)c1N` [nepafenac], the “Approx. Solubility in water” value was 20 µg/mL.

For `CC(C(=O)O)c1ccc(C(=O)c2cccs2)cc1` (stereo not shown) [suprofen], the “Approx. Solubility in water” value is 40 µg/mL.

Turning to `CC(C)OC(=O)CCC/C=C\C[C@@H]1[C@@H](/C=C/[C@@H](O)COc2cccc(C(F)(F)F)c2)[C@H](O)C[C@@H]1O` [travoprost], the “Approx. Solubility in water” value is 8 µg/mL.
